Series [1] is described as follows: Pharmacokinetics in mice (IV and PO), plasma LC-MS/MS. It is filed as in vivo, Male ICR (CD-1) mice. The conditions noted are these: for Cl / AUC / half-life / Vd: IV (1 mpk); for AUC / half-life / Vd / Cmax / Tmax / bioavailability: male, ICR (CD-1), mouse, plasma; for AUC / half-life / Vd: 1 mg/kg; for half-life: read-out: T½ (converted); for Vd: read-out: Vss; for Cmax / Tmax / bioavailability: 10 mg/kg, PO (10 mpk); for bioavailability: oral bioavailability. The protocol: Male ICR (CD-1) mice at around 4-6 weeks with body weight of around 25 grams (n=3) were purchased from VT-River (Zhejiang, China). After 1-week acclimation, animals were dosed with exemplary compounds intravenously at 1 mpk or orally at 10 mpk (0.5% methylcellulose in PBS as vehicle for both routes of administration). Blood samples (30 μL) were collected via saphenous vein puncture at 5 (IV only), 15, 30, 60, 120, 240, 480, and 1440 min post dose. The blood samples were saved in 0.5 M K2EDTA coated tubes and centrifuged at 4,600 rpm at 4° C. for 5 min. Plasma samples were collected and stored in −80° C. till PK analysis.
Take 10 μL of K2EDTA-treated plasma samples of CD-1 mice, add 200 μL of precipitation solution with internal standard (5 ng/mL Terfenadine in MeOH/ACN), mix well by vortexing for 1 min at room temperature followed by centrifuge at 4° C. and 4000 rpm for 15 min. Save the supernatant as injection for LC-MS/MS quantification of exemplary compounds in plasma samples of mice.
Establish a standard curve before and after each analytical batch, accompanied by quality controls of low, medium, and high concentrations. The number of quality control samples is not less than 6 and should be equal to or more than the number of samples of each batch, and interspersed in sample measurement. Standard curve and quality control samples of each batch must meet the acceptance criteria.

A further series addresses T1, GPR40 (Homo sapiens, UniProt O14842).
T1 construct: expressed in transfected cells
Kind of series: IP1 accumulation assay in HEK293 cells stably expressing GPR40. Conditions: HEK293 cells stably expressing GPR40, 2 hours at 37° C. In kind it is cell-based. The protocol:
IP1 accumulation assay was used to evaluate the potency of compounds. HEK293 cells stably expressing GPR40 were cultured in 5% CO2 incubator (ThermoFisher) in maintenance media (Dulbecco's modified Eagle's medium with 4.5 g/L of glucose, 10% fetal bovine serum, 100 μg/mL Hygromycin, and Penicillin (100 U/mL)/Streptomycin (100 μg/mL)) till 100% confluency. Cells were harvested freshly, spun down at 300× g for 5 min, and resuspended in pre-warmed 1× stimulant buffer from Cisbio IP-One HTRF Detection kit (Cisbio). Cell density was adjusted to 2.0×10^6 cells/mL. DMSO was used as blank control and AMG-1638 (CAS #: 1142214-62-7) as positive control. Compounds were prepared at 10 mM in DMSO and 5 nL of 3× serially diluted compounds (10 concentrations) were added to each well of the 384-LDV assay plate (Corning) by using ECHO 550 (Labcyte). Five μL of cells in suspension were transferred into each well by using Multidrop Combi Reagent Dispenser (ThermoFisher). Assay plate was then sealed and incubated at 37° C. for 2 hours. IP-d2 reagent and anti-IP1 reagent were prepared following the manual (Cisbio). Five μL of IP1-d2 and then 5 μL of anti-IP1 antibody was added to each well sequentially. Assay plate was incubated at room temperature for 60 min and then read at 665 nm/615 nm on an Envision plate reader (PerkinElmer). The ratio of values obtained at 665 nm and 615 nm was used for calculation of IP1 accumulation: % Effect=(Ratiosample−Ratioblank)/(RatioAMG-1638−Ratioblank)×100. Dose curve was fitted and EC50 of each compound was calculated by using XLFit.

The test system of the next series is C57BL/6 mice. Kind of series: oGTT study (oral glucose tolerance test). Conditions: 30 mpk oral gavage, blood glucose AUC 0-120 minutes after 5 g/kg glucose challenge. It is filed as in vivo, Male C57BL/6 mice. On the procedure:
(§1) Male C57BL/6 mice were purchased from Zhejiang Vital River Laboratories Co., Ltd (a branch of Charles River Laboratories) at around 7-8 weeks of age (n=8). Animal were kept under regular light/dark cycle (12 h light: 12 h dark, L^D) at room temperature and fed regular chow diet and tap water ad libitum in facility for more than one week. On study day, animals were fasted by removing food at 7:00 AM. Blood glucose was measured at 9:00 AM by a glucometer (Roche) via tail bleeding and mice were sorted to groups of treatment based on average blood glucose (˜[…]). The vehicle (0.5% methylcellulose) or exemplary compounds solutions (30 mpk dose) were mixed well and dosed by oral gavage (dosing volume=10 ml/kg body weight). At 1:00 PM, blood glucose was measured by a glucometer (0 min). Animals were then PO dosed with 5 g/kg glucose for oral glucose challenge. Blood glucose was then measured at 20, 40, 60, and 120 min by glucometer. At the end of study, 50 μl tail blood from treatment groups were collected and mixed with 4% sodium citrate (vol 9:1). Tubes were centrifuged in a benchtop centrifuge for 10 min at 8,000 RPM at 4° C. Plasma samples were separated and stored in −80° C. freezer for measurements of PK by LC-MS/MS.

A short description of series [2]: Plasma drug concentration at end of oGTT study by LC-MS/MS. It is filed as in vivo, Male C57BL/6 mice. The conditions noted are these: male, C57BL/6, mouse, 30 mpk oral, 6 h post dose, read-out: Drug conc. On the procedure: as §1

Each structure is given as a SMILES string. Where a name gives a salt, the structure may show the parent alone.

T1 sequence (O14842 whole entry): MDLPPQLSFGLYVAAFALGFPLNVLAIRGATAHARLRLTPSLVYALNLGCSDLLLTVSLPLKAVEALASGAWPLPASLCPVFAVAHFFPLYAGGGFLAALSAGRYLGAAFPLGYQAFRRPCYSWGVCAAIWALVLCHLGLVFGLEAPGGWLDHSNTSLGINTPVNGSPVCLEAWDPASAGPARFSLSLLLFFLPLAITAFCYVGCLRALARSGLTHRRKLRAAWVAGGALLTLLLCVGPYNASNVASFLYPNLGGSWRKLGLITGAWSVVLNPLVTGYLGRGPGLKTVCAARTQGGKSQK

For the molecule `COc1ccc(C(=O)N(CC(C)(C)CCCCCCCCCCCCCCCCCCCC(=O)NCC[N+](C)(CC(=O)NCCN)CC(=O)NCCN)c2cccc(C)n2)c(N2CCC(COc3cc([C@@H](CC(=O)O)C4CC4)ccn3)CC2)c1` [Example 4], in series [1], the Cl came out at 0.22 ml/mL/kg, the AUC is 54.1 µM·h, the half-life was 8.2 h and the Vd was 0.14 L/kg. In addition, in series [1], the highest level (Cmax) was 66.1 nM, the time of peak concentration (Tmax) is 5.3 h and the bioavailability amounted to 0.16%. At GPR40, this molecule came in with an EC50 of 2.14 nM.

In the case of `COc1ccc(C(=O)N(CC(C)(C)CCCCCCCCCCCCCCCCCC(=O)NCCC[N+](C)(CC(=O)NCCN)CC(=O)NCCN)c2cccc(C)n2)c(N2CCC(COc3cc([C@@H](CC(=O)O)C4CC4)ccn3)CC2)c1` [Example 12], in series [1], the Cl was 0.15 ml/mL/kg, the AUC amounted to 33.9 µM·h, the half-life was 8.9 h and the Vd was determined as 0.1 L/kg. In series [1], the highest level (Cmax) was 80.7 nM, the Tmax is 5.3 h and the bioavailability stood at 0.17%. For the same molecule, on GPR40, the EC50 worked out at 0.17 nM.

`COc1ccc(C(=O)N(CC(C)(C)CCCCCCCCCCCCCCCCCCCC(=O)NCCCN(CC(=O)O)CC(=O)O)c2cccc(C)n2)c(N2CCC(COc3cc([C@@H](CC(=O)O)C4CC4)ccn3)CC2)c1` [Example 13]: in series [1], the Cl came to 0.14 ml/mL/kg, the AUC came out at 88.9 µM·h, the half-life was 6.5 h and the Vd is 0.07 L/kg. Also, in series [1], the highest level (Cmax) was 268 nM, the Tmax was found to be 8 h and the bioavailability is 0.52%. Also, the half-maximal effective concentration (EC50) at GPR40 is 0.76 nM.

Regarding `COc1ccc(C(=O)N(CC(C)(C)CCCCCCCCCCCCCCCCCCCC(=O)NCCC[N+](C)(CC(=O)[O-])CC(=O)O)c2cccc(C)n2)c(N2CCC(COc3cc([C@@H](CC(=O)O)C4CC4)ccn3)CC2)c1` (stereo partly shown) [Example 14], in series [1], the Cl was found to be 0.20 ml/mL/kg, the exposure (AUC) worked out at 68 µM·h, the half-life was 6.7 h and the Vd was 0.09 L/kg. For the same molecule, in series [1], the peak level (Cmax) was 164 nM, the time to peak (Tmax) was 8 h and the bioavailability came out at 0.37%. This molecule also returned an EC50 on GPR40 of 0.63 nM.

Turning to `COc1ccc(C(=O)N(CC(C)(C)CCCCCCCCCCCCCCCCCC(=O)NCC[N+](C)(CCCC(=O)NCCN)CCCC(=O)NCCN)c2cccc(C)n2)c(N2CCC(COc3cc([C@@H](CC(=O)O)C4CC4)ccn3)CC2)c1` [Example 17], in the series on C57BL/6 mice, the “% change in AUC over vehicle” value is given as −26.9%. In series [1], the Cl is 0.10 ml/mL/kg and the Vd is 0.08 L/kg. For the same molecule, the concentration at 6 h in series [2] was 237 ± 2 ng/mL.

For the molecule `COc1ccc(C(=O)N(CC(C)(C)CCCCCCCCCCCCCCCCCC(=O)NCCC[N+]23CCN(CC2)CC3)c2cccc(C)n2)c(N2CCC(COc3cc([C@@H](CC(=O)O)C4CC4)ccn3)CC2)c1` [Example 18, (S)-1-(3-(20-(2-(4-(((4-(2-carboxy-1-cyclopropylethyl)pyridin-2-yl)oxy)methyl)piperidin-1-yl)-4-methoxy-N-(6-methylpyridin-2-yl)benzamido)-19,19-dimethylicosanamido)propyl)-1,4-diazabicyclo[2.2.2]octan-1-ium TFA salt], the “% change in AUC over vehicle” value in the series with C57BL/6 mice is listed as −26.4%. Also, in series [1], the Cl is 0.32 ml/mL/kg, the area under the curve (AUC) is 33.7 µM·h, the half-life was 5.1 h and the Vd came out at 0.11 L/kg. In series [1], the Cmax stood at 42 nM, the time to peak (Tmax) was 4 h and the bioavailability worked out at 0.15%. Besides, the EC50 on GPR40 turned out to be 0.24 nM. Besides, in series [2], the concentration at 6 h stood at 274 ± 99 ng/mL.

As for `COc1ccc(C(=O)N(CC(C)(C)CCCCCCCCCCCCCCCCCC(=O)NCCC[N+]23CC[N+](C)(CC2)CC3)c2cccc(C)n2)c(N2CCC(COc3cc([C@@H](CC(=O)O)C4CC4)ccn3)CC2)c1` [Example 19], the “% change in AUC over vehicle” value in the series with C57BL/6 mice was −29.7%. For the same molecule, in series [1], the Cl is listed as 0.43 ml/mL/kg, the AUC is 28.5 µM·h, the half-life was 4.7 h and the Vd was 0.11 L/kg. For the same molecule, in series [1], the concentration peaked (Cmax) at 77 nM, the Tmax was 4 h and the bioavailability was 0.31%. In addition, the EC50 at GPR40 worked out at 0.07 nM. In addition, the concentration at 6 h in series [2] was determined as 347 ± 125 ng/mL.

For `COc1ccc(C(=O)N(CC(C)(C)CCCCCCCCCCCCCCCCCCCCCC[N+]23CCN(CC2)CC3)c2cccc(C)n2)c(N2CCC(COc3cc([C@@H](CC(=O)O)C4CC4)ccn3)CC2)c1` [Example 21, (S)-1-(24-(2-(4-(((4-(2-carboxy-1-cyclopropylethyl)pyridin-2-yl)oxy)methyl)piperidin-1-yl)-4-methoxy-N-(6-methylpyridin-2-yl)benzamido)-23,23-dimethyltetracosyl)-1,4-diazabicyclo[2.2.2]octan-1-ium], in series [1], the Cl amounted to 0.67 ml/mL/kg, the AUC is 18.5 µM·h, the half-life is 7.2 h and the Vd was 0.36 L/kg. Further, in series [1], the Cmax came to 37 nM, the time of peak concentration (Tmax) came out at 6.7 h and the bioavailability is 0.34%. Besides, the EC50 at GPR40 was 2.04 nM.

(Values after patent US20250073338A1, “CONJUGATE COMPOUNDS AND COMPOSITIONS” (REZUBIO PHARMACEUTICALS CO., LTD, priority 2023, published 2025).)
